Legend:
[1] = tested on: platelets; assay: Platelet disaggregation 10 minutes after ADP; assay type: cell-based, rabbit; settings: 1.0 mg/ml
Procedure: Platelet enriched rabbit plasma has been used to assess the platelet anti-aggregating and disaggregating properties of Syringa vulgaris Extract 1, verbascoside and isoverbascoside. Platelet rich plasma has been obtained from rabbit venous blood by mixing it with a 3.8% sodium citrate solution (9:1 v/v). The solution has then been centrifuged at 460×g for 20 minutes. The supernatant has been collected and immediately used for the aggregation assays. Platelet aggregation has been recorded using a Chronolog “Ionised calcium platelet aggregometer” (Chrono-log Co., USA). All measurements have been performed at 37° C. with continuous stirring. […] Then 10 μl of a solution of ADP (final concentration—10 μm) has been added and the luminous transmittance continuously recorded. The results are expressed as the DÒ/DÒÊ ratio, where DÒÊ and DÒ are the luminous transmittance values, in the absence and presence of extract respectively. Platelet disaggregation (the disappearance of pre formed aggregates) has been determined using the same luminous transmittance curve 10 minutes following the addition of ADP. The results are expressed as the DR/DRk ratio, where DRk and DR, are the luminous transmittance in the absence and presence of extract. […]

[2] = Metal chelating activity (spectrophotometric), Cu2+; assay type: binding; settings: chelation equilibrium constant, calculated for a pure phenylpropanoid
Source text: (§1) The chelating activities of Syringa vulgaris extracts, verbascoside and isoverbascoside in relation to Fe^2+, Fe^3+, Cu^2+ and Ni^2+ metal ions has been determined by means of spectrophotometric measurements using a Shimadzu 1770 UV spectrophotometer. The activities of chelating agents depends on the association constant (equilibrium) of their reactions with the metals according to the following reaction:
(§2) [formula] wherein Keq is the equilibrium constant equal to the ratio of concentrations at equilibrium of a complex and product of equilibrium concentrations of metal ions and a chelator:
(§3) [formula] The method used for determining chelating activity is well documented in the literature (Korkina L G, Afarras'er IB. Antioxidant and chelating properties of flavonoids. Adv. Pharmacol., 1997, 38:151-63). The results are expressed as Keg (M^−1) calculated for a pure phenylpropanoid. This way the chelating activity against ferrous (Fe II), ferric (Fe III), copper (Cu II) and nickel ions has been calculated.

[3] = target: T1, 5 alpha reductase type I (Homo sapiens, UniProt P18405); assay: Type I 5 alpha reductase inhibition (14C testosterone conversion); assay type: biochemical; settings: pH 7.0
T1 construct: made in house; host or cells: genetically modified yeast
T1 sequence (P18405 1-259): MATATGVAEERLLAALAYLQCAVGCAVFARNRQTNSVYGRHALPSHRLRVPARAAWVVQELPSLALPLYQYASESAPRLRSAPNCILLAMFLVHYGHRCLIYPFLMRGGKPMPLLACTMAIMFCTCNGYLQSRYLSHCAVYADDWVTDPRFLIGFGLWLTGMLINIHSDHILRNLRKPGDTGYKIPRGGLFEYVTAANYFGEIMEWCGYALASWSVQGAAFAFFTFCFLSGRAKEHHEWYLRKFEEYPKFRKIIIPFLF
Procedure: Determination of the 5 alpha reductase inhibitory activities by Syringa vulgaris extracts, verbascoside and isoverbascoside in comparison to Serenoa repens extracts. Said determination, has been performed using enzymes (5 alpha reductase, type I and type II) produced by genetically modified yeast. Enzyme activities have been determined in the presence of Syringa vulgaris and Serenoa repens extracts, verbascoside isoverbascoside.
Type I 5 alpha reductase activity has been assayed by incubating the enzyme in 0.1M Tris-citrate buffer (pH 7.0), containing 5 μM (^14C) radio-labelled testosterone (Amersham, Sweden) and 5 mM NADPH (Sigma) in a final volume of 5 ml. The solution thus obtained has been incubated for 1 hour at 37° C.
In both assays, the steroids have been extracted using 5 ml of methylene chloride. The extracts have then been dried under a stream of nitrogen and the dried residues obtained have, been dissolved in 20 μl of a chloroform-methanol mixture (2:1 v/v). […] For quantification of the results, the spots have been scraped from the TLC plate and extracted with 2 ml of ethyl acetate. The extracts obtained have been analysed, using scintillation fluid, with the aid of a Wallach […]. The enzyme activity has been calculated from the percentage conversion (C %) of the substrate into final product:
C %=[counted product/(counted substrate+product)]×100.

[4] = Metal chelating activity (spectrophotometric), Fe3+; assay type: binding; settings: chelation equilibrium constant, calculated for a pure phenylpropanoid
Source text: as §1, §2, §3

[5] = tested on: Malassezia furfur ST 8036; assay: Multiple dilution antimycotic assay, Malassezia furfur; assay type: cell-based; settings: assayed at 0.625-5 mg/ml
Procedure: With the aim of identifying any potential antifungal activity in the Syringa vulgaris extracts, microbiological assays have been prepared, generally known as multiple dilution assays. Such assays have been performed using the following fungal strains: Trycophyton rubrum ATCC 28188 and Malassezia furfur ST 8036. Syringa vulgaris Extracts 1 and 2, verbascoside and isoverbascoside have been assayed at concentrations of […], 1.25 mg/ml, 2.5 mg/ml and 5 mg/ml. The fungal strains used for testing have been inoculated into culture-broth (in Tryptone soy broth medium, for Malassezia furfur the culture medium has been supplemented with 2 ml/100 ml of olive oil) containing Syringa vulgaris extracts 1 and 2, verbascoside and isoverbascoside at the concentrations described above. In parallel with these tests, culture broths containing the microbial strain alone have been prepared (controls). The culture-broths have, been incubated at 30° C. for a period of 28 days. Samples of the various culture-broths have been taken at 0, 7, 14, 21 and 28 days, with the aim of counting the number of CFU/ml in relation to the various fungal strains, by plating the cultures on solid medium. A certain number of serial dilutions have been prepared for each sample in order to determine the fungal load of each culture-broth. Each dilution has been assayed in triplicate on solid medium. […]

[6] = Metal chelating activity (spectrophotometric), Fe2+; assay type: binding; settings: chelation equilibrium constant, calculated for a pure phenylpropanoid
Source text: as §1, §2, §3

In the case of `CC1OC(OC2C(O)C(COC(=O)C=Cc3ccc(O)c(O)c3)OC(OCCc3ccc(O)c(O)c3)C2O)C(O)C(O)C1O` [Isoverbascoside, b-(3,4-dihydroxyphenyl)-ethyl-O-α-L-ramnopyranosyl(1″-3′)-b-D-(6′-O-caffeoil)glucopyranoside], the “Disaggregation (% with respect to control)” value [1] is reported as 75 ± 21%, the “Cu^2+ (Keq, M^−1)” value [2] is reported as 130000 ± 60000 M⁻¹ and the IC50 [3] is reported as 19.2 µM. The “Fe^3+ (Keq, M^−1)” value [4] was 130000 ± 40000 M⁻¹, the “antimycotic activity towards Malassezia furfur (in words)” value [5] was “activity comparable to Extract 1” and the “Fe^2+ (Keq, M^−1)” value [6] was 460000 ± 120000 M⁻¹.
With `C[C@@H]1O[C@@H](O[C@@H]2[C@@H](O)[C@H](OCCc3ccc(O)c(O)c3)O[C@H](CO)[C@H]2OC(=O)/C=C/c2ccc(O)c(O)c2)[C@H](O)[C@H](O)[C@H]1O` [Verbascoside, b-(3,4-dihydroxyphenyl)-ethyl-O-α-L-ramnopyranosyl (1″-3′)-b-D-(4′-O-caffeoil)-glucopyranoside] the “Disaggregation (% with respect to control)” value [1] was 73 ± 21%, the “Cu^2+ (Keq, M^−1)” value [2] was 120000 ± 40000 M⁻¹ and the IC50 [3] was 20.8 µM. The “Fe^3+ (Keq, M^−1)” value [4] was 120000 ± 50000 M⁻¹, the “antimycotic activity towards Malassezia furfur (in words)” value [5] was “activity comparable to Extract 1” and the “Fe^2+ (Keq, M^−1)” value [6] was 450000 ± 110000 M⁻¹.

— patent US10456434B2, “Extracts obtained from cell line cultures from plants belonging to the Oleaceae family (e.g. Syringa vulgaris), their preparation and use” (CRODA ITALIANA S. P. A., priority 2005, dated 2019)
